The record followed here is patent US11034692B1 (Genentech, Inc., priority 2017, dated 2021).

Assay [1] deals with primary human pan T cells. The assay is described as follows: Human T-Cell IL2 Induction Assay. Conditions: anti-CD3/anti-CD28 stimulated primary human pan T cells. The assay is classed as cell-based. As to the method:
Human T-Cell IL2 Induction Assay
Anti-CD3 and anti-CD28 activates TCR signaling in primary human pan T cells leading to IL-2 promoter induction. Secreted IL-2 in cell culture supernatant is detected by electrochemiluminescence using a capture antibody against IL-2 and an anti-IL-2 antibody labeled with SULFO-tag.
See www.mesoscale.com for additional electrochemiluminescence technology information.
Incubate primary human pan T cells with varying concentrations of test compounds for 30 minutes in a humidified incubator at 37° C. and 5% CO2. Transfer cells to a plate pre-coated with a fixed concentration of anti-human CD3 (determined separately for each donor lot) and add soluble anti-human CD28 (final concentration=1 μg/ml). Stimulate cells in a humidified incubator at 37° C. and 5% CO2 for 4 hours. Transfer 25 μl of supernatant to a MSD single spot plate pre-coated with an anti-human IL-2 antibody. Incubate MSD plate overnight at 4° C. with gentle shaking. Wash MSD plate 4× with wash buffer. Add SULFO-tagged detection antibody at a 1:50 dilution and incubate at room temperature shaking for 2 hours. Wash MSD plate 4× with wash buffer and add 150 μl 2×MSD read buffer. Read on an MSD instrument. Normalize data to stimulated/untreated controls to calculate % activity at each concentration of compound.
Materials: • Frozen Primary Human Pan-T Cells (StemCell Technologies #70024) • anti-human CD3 (OKT3 clone) (eBioscience #16-0037-81) • anti-human CD28 (CD28.2 clone) (BD #555725) • 96-well Human IL-2 tissue culture kit (MSD #K151AHB-4)
Instrumentation: • Biomek FX for liquid handling (Beckman Coulter) • MSD SECTOR S 600 (Meso Scale Discovery)
Exemplary compounds of Formula I or Ia were tested in the human T-cell IL-2 induction assays. The % increase measured for IL-2 in cells treated by the test compounds relative to untreated cells are provided in Table B2 for certain compounds (structures as shown with the HPK1 Ki values).

Assay [2] addresses HPK1 (Homo sapiens, UniProt Q92918). Nature of the assay: HPK1 Lantha Binding Assay ("Lanth"). Conditions: Table B2, read-out: HPK1 Ki (nM), L = Lanth. In a few lines: (§1)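 TR-FRET tracer displacement with 2 nM GST-tagged kinase, 2 nM Eu-anti-GST antibody and 15 nM Tracer222 at 23 C. Enzyme–antibody preincubated 1 h with compound, then tracer added for 1 h; 340 nm excitation, 615/665 nm emission. Ki from Morrison fit over an 11-point 5-fold dilution.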

Assay [3] addresses HPK1. Nature of the assay: HPK1 Lantha Binding Assay ("Lanth"). The method in brief:
as §1

For assay [4], the target named is HPK1-FL (HPK full length, T165E S171E) (Homo sapiens (Human), UniProt Q92918, S171E/T165E). Nature of the assay: HPK1-FL HTRF Enzymatic Assay ("HTRF"). The assay is classed as biochemical. Conditions: Table B2, read-out: HPK1 Ki (nM), H = HTRF. As to the method: HPK1-FL HTRF Enzymatic Assay (“HTRF”)
HPK1-FL (HPK full length, T165E S171E), sequence (Q92918 whole entry T165E/S171E): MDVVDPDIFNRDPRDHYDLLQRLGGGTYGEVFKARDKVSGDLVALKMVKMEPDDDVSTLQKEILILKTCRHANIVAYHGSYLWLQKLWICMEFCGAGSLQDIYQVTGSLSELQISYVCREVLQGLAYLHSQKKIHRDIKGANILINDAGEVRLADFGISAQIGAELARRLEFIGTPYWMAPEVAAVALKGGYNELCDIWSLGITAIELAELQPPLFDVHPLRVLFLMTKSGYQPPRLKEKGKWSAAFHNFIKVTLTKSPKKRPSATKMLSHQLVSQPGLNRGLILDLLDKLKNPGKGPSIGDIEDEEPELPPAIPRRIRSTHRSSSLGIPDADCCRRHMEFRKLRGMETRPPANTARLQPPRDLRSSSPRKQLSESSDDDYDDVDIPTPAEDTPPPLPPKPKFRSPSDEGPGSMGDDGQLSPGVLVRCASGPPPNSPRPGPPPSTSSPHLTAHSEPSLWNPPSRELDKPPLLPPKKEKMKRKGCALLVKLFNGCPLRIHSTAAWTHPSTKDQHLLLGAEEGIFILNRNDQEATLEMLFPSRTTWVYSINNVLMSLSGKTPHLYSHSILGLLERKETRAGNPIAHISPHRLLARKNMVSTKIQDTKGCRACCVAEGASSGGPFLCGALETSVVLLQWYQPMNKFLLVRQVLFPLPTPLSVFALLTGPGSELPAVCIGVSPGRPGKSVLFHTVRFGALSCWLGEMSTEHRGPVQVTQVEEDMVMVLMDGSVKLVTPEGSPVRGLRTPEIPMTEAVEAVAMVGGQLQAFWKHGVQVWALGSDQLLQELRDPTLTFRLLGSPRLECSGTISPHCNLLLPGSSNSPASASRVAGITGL
HPK-FL enzyme phosphorylates Biotin-SLP-76 substrate in the presence of ATP at 1 mM and varying concentrations of test compound. Product is detected by FRET using Eu-anti-pSLP76 Ab and SA-XL665. See www.cisbio.com/HTRF for additional HTRF technology information.
Instrumentation: • Echo555 compound dispenser • Agilent Bravo • Perkin Elmer Envision
Materials: • Assay plate: White ProxiPlate 384 F (PerkinElmer cat #6008289) • Kinase: HPK full length double mutant • Substrate: Biotin-SLP76 • ATP: 100 mM ATP • BSG: 2% BSG • DMSO: DMSO (Sigma cat #34869-100ML) • Reaction Buffer: H2O/50 mM HEPES, pH 7.5/10 mM MgCl2/2 mM TCEP/0.01% Brij-35/0.01% BSG • Detection mix: Eu-anti-pSLP76/SA-XL665 (Cisbio, #610SAXAC)
Assay Procedure Ki Determination:
To a 384 well Proxiplate with 80 nL compound or DMSO spotted on was added 4 μl/well kinase mix. The mixture was preincubated for 30 minutes and then 4 μl/well substrate mix was added. The solution was incubated for 60 min and then 4 μl/well detection mix was added. The solution was incubated for another 60 min. The plates were then loaded onto a Perkin Elmer Envision and the TR-FRET signal was measured at 615 and 665 nm. A ratio of […] was used to calculate the % activity at each concentration of compound.
On the technique in general: In TR-FRET formats the signal depends on donor and acceptor labels being close together.

Where [5] appears, read: Table B1-1, read-out: HPK1 Ki (μM) (Lanth).
Where [6] appears, read: Table B2, read-out: HPK1 Ki (nM), L = Lanth.
The mark [7] stands for this setting: Table B1-2, read-out: HPK1 Ki, L = Lanth.

Where two headings read alike, the source gives them in different places.

HPK1 (Homo sapiens, UniProt Q92918), sequence (Q92918 whole entry, looked up): as the sequence (Q92918 whole entry T165E/S171E) above, with E165T, E171S counted along it

A word on the Ki: it is a dissociation constant, usually derived from enzyme kinetics or from competition with a known ligand. For `Cc1n[nH]c(C)c1-c1cc2cc(NC(=O)[C@@H]3C[C@@H]3F)ncc2c(N)n1` (racemic) [Compound 103, (±)-cis-N-(8-amino-6-{3,5-dimethyl-1H-pyrazol-4-yl)-2,7-naphthyridin-3-yl)-2-fluorocyclopropane-1-carboxamide], in assay [1] (assayed concentration 0.31 μM), the “% IL-2 increase relative to untreated cells” value is recorded as 94%. On HPK1 [2], the Ki worked out at 3.8 nM.
On to `Cc1ccncc1-c1cc2cc(Nc3cnn([C@H](C)C#N)c3)ncc2c(N)n1` (single isomer, unassigned) [Compound 273], for which the “% IL-2 increase relative to untreated cells” value in assay [1] (assayed concentration 0.93 μM) is reported as 830%. Moreover, the Ki was found to be 0.0675 nM on HPK1 [3] (setting [5]) and 0.06 nM at HPK1 [2].
With `Cc1ccncc1-c1cc2cc(NC(=O)[C@H]3[C@@H](C)[C@@H]3c3cnn(C)c3)ncc2c(N)n1` (single isomer, unassigned) [Compound 328], the “% IL-2 increase relative to untreated cells” value in assay [1] (assayed concentration 0.93 μM) stood at 936%. The Ki on HPK1 [3] (setting [5]) stood at 0.114 nM; on HPK1 [3] (setting [6]), 0.11 nM.
As to `Cc1cccc(F)c1-c1cc2cc(NC(=O)[C@@H]3[C@H](C)[C@H]3c3cnn(C)c3)ncc2c(N)n1` (single isomer, unassigned) [Compound 356], the “% IL-2 increase relative to untreated cells” value in assay [1] (assayed concentration 2.8 μM) is 732%. Besides, the inhibition constant Ki on HPK1 [3] (setting [7]) and at HPK1 [3] (setting [6]) was 0.3 nM throughout.
Turning to `Cc1cc(-c2ncco2)ccc1-c1cc2cc(NC(=O)[C@H]3C[C@@H]3c3cnn(C)c3)ncc2c(N)n1` (single isomer, unassigned) [Compound 379], the “% IL-2 increase relative to untreated cells” value in assay [1] (assayed concentration 2.8 μM) is on record as 547%.
As for `Cc1ccncc1-c1cc2cc(NC(=O)C3CC3)ncc2c(N)n1` [Compound 24, N-(8-amino-6-(4-methylpyridin-3-yl)-2,7-naphthyridin-3-yl)cyclopropanecarboxamide], the “% IL-2 increase relative to untreated cells” value in assay [1] (assayed concentration 0.93 μM) is listed as 513%. The Ki at HPK1 [3] (setting [5]) and on HPK1 [3] (setting [6]) was 0.68 nM throughout.
In the case of `CNC(=O)Nc1cc2cc(-c3cnccc3C)nc(N)c2cn1` [Compound 130, 1-[8-amino-6-(4-methyl-3-pyridyl)-2,7-naphthyridin-3-yl]-3-methyl-urea], the “% IL-2 increase relative to untreated cells” value in assay [1] (assayed concentration 0.93 μM) is recorded as 274%. The inhibitory constant (Ki) on HPK1 [3] (setting [5]) and at HPK1 [3] (setting [6]) was 2.6 nM in each case.
Take `Cc1ccncc1-c1cc2cc(Nc3cc4n(n3)CC(=O)N(C)CC4)ncc2c(N)n1` [Compound 256, 2-[[8-amino-6-(4-methylpyridin-3-yl)-2,7-naphthyridin-3-yl]amino]-6-methyl-4H,5H,6H,7H,8H-pyrazolo[1,5-d][1,4]diazepin-7-one]: in assay [1] (assayed concentration 0.31 μM), the “% IL-2 increase relative to untreated cells” value is given as 699%. The Ki on HPK1 [3] (setting [5]) was found to be 0.02 nM; in assay [4] it was 0.59 nM.
For `Cc1ccncc1-c1cc2cc(Nc3ccc(CC#N)cn3)ncc2c(N)n1` [Compound 389, 2-[6-[[8-amino-6-(4-methyl-3-pyridyl)-2,7-naphthyridin-3-yl]amino]-3-pyridyl]acetonitrile], the “% IL-2 increase relative to untreated cells” value in assay [1] (assayed concentration 0.10 μM) worked out at 265%. Besides, the inhibitory constant (Ki) at HPK1 [3] (setting [7]) and at HPK1 [3] (setting [6]) was 0.033 nM in each case.
